Measurements: US20090215857A1 (Pfizer Products Inc., priority 2005, published 2009)

Legend:
[1] = molecular target: T1, human norepinephrine transporter (Homo sapiens, UniProt P23975); assay: hNET receptor binding ([125I]-RTI-55 radioligand); settings: membranes of HEK-293 cells transfected with human norepinephrine transporter cDNA; 50 pM [125I]-RTI-55; IC50 converted by Cheng-Prusoff; read-out: NET Ki
T1 construct: expressed in transfected cells; host or cells: HEK-293
How it was run: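 Membranes from HEK-293 cells expressing human NET were incubated 90 min at room temperature with 50 pM [125I]-RTI-55 and test compound (10^−5M to 10^−12M) in Krebs-HEPES, pH 7.4.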

[2] = molecular target: T2, human serotonin transporter (Homo sapiens, UniProt P31645); assay: hSERT receptor binding ([125I]-RTI-55 radioligand); settings: membranes of HEK-293 cells transfected with human serotonin transporter cDNA; 50 pM [125I]-RTI-55; IC50 converted by Cheng-Prusoff; read-out: SERT Ki
T2 construct: expressed in transfected cells; host or cells: HEK-293
How it was run: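 Ki values derive via Cheng-Prusoff from IC50s of displacement of 50 pM [125I]-RTI-55 binding to transfected HEK-293 membranes, 90 min at room temperature in pH 7.4 Krebs-HEPES buffer. Compounds spanned 10^−12 to 10^−5 M, in duplicate; nonspecific binding was set with 10 μM citalopram.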

T1 sequence (P23975 whole entry): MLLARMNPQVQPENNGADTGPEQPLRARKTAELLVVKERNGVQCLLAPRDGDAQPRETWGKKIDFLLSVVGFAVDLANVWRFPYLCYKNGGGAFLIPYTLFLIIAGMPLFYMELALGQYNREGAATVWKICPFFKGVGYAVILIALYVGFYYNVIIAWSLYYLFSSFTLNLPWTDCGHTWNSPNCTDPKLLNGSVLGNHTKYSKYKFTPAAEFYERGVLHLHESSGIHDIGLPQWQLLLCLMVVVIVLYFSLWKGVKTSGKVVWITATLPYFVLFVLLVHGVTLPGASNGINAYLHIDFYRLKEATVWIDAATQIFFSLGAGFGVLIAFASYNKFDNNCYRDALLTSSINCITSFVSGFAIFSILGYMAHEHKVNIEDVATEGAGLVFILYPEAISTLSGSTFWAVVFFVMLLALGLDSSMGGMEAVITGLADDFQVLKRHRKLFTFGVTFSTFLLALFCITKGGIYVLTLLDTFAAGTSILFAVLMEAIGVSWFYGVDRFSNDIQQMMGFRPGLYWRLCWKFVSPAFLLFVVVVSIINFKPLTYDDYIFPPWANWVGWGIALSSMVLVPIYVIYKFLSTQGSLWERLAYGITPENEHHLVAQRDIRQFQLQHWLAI
T2 sequence (P31645 whole entry): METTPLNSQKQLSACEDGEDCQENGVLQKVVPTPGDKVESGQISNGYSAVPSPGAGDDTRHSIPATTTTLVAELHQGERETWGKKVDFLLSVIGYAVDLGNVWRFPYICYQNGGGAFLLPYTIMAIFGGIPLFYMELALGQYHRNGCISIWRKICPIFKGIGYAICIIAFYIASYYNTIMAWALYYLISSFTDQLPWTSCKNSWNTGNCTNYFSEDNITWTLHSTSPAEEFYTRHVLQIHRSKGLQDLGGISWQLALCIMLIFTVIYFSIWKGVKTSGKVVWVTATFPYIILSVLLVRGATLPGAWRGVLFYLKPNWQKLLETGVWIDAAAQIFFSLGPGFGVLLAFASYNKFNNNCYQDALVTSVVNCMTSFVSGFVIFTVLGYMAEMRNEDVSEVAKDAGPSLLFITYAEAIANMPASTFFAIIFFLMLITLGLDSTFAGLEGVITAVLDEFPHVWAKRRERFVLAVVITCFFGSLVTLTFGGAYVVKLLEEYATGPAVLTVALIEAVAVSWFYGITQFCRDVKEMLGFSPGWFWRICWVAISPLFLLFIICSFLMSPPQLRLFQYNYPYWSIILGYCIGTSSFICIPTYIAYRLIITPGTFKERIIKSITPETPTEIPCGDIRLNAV

Compound | Ki [1] | Ki [2]
CC(=O)c1cccc(-c2ccc(F)cc2CO[C@H]2CCNC2)c1 [Example D-81, (S)-1-[4′-Fluoro-2′-(pyrrolidin-3-yloxymethyl)-biphenyl-3-yl]-ethanone] | 1970 nM | 371 nM
Cc1cccc(-c2ccc(F)cc2CO[C@H]2CCNC2)c1C [Example D-82, (S)-3-(4-Fluoro-2′,3′-dimethyl-biphenyl-2-ylmethoxy)-pyrrolidine] | 258 nM | 77.1 nM
Fc1ccc(-c2ccc(Cl)c(Cl)c2)c(CO[C@H]2CCNC2)c1 [Example D-83, (S)-3-(3′,4′-Dichloro-4-fluoro-biphenyl-2-ylmethoxy)-pyrrolidine] | 109 nM | 71.6 nM
COc1ccc(-c2ccc(F)cc2CO[C@H]2CCNC2)cc1OC [Example D-84, (S)-3-(4-Fluoro-3′,4′-dimethoxy-biphenyl-2-ylmethoxy)-pyrrolidine] | 1920 nM | 70.4 nM
CCOc1ccc(-c2ccc(F)cc2CO[C@H]2CCNC2)cc1 [Example D-85, (S)-3-(4′-Ethoxy-4-fluoro-biphenyl-2-ylmethoxy)-pyrrolidine] | 706 nM | 324 nM
Fc1cc(F)cc(-c2ccc(F)cc2CO[C@H]2CCNC2)c1 [Example D-86, (S)-(4,3′,5′-Trifluoro-biphenyl-2-ylmethoxy)-pyrrolidine] | 278 nM | 76.2 nM
OCc1cccc(-c2ccc(F)cc2CO[C@H]2CCNC2)c1 [Example D-87, (S)-[4′-Fluoro-2′-(pyrrolidin-3-yloxymethyl)-biphenyl-3-yl]-methanol] | 3080 nM | 124 nM
CC(C)OC(=O)c1ccc(-c2ccc(F)cc2CO[C@H]2CCNC2)cc1 [Example D-88, (S)-4′-Fluoro-2′-(pyrrolidine-3-yloxymethyl)-biphenyl-4-carboxylic acid isopropyl ester] | 1030 nM | 1040 nM
Cc1ccc(C)c(-c2ccc(F)cc2CO[C@H]2CCNC2)c1 [Example D-89, (S)-3-(4-Fluoro-2′,5′-dimethyl-biphenyl-2-ylmethoxy)-pyrrolidine] | 189 nM | 268 nM
Oc1cccc(-c2ccc(F)cc2CO[C@H]2CCNC2)c1 [Example D-90, (S)-4′-Fluoro-2′-(pyrrolidin-3-yloxymethyl)-biphenyl-3-ol] | 68.3 nM | 516 nM
Fc1ccc(-c2ccc(OC(F)(F)F)cc2)c(CO[C@H]2CCNC2)c1 [Example D-91, (S)-3-(4-Fluoro-4′-trifluoromethoxy-biphenyl-2-ylmethoxy)-pyrrolidine] | 935 nM | 16.5 nM
COc1c(C)cc(-c2ccc(F)cc2CO[C@H]2CCNC2)cc1C [Example D-92, (S)-3-(4-Fluoro-4′-methoxy-3′,5′-dimethyl-biphenyl-2-ylmethoxy)-pyrrolidine] | 738 nM | 144 nM
COc1cccc(-c2ccc(F)cc2CO[C@H]2CCNC2)c1F [Example D-93, (S)-3-(4,2′-Difluoro-3′-methoxy-biphenyl-2-ylmethoxy)-pyrrolidine] | 1120 nM | 1450 nM
Cc1cc(-c2ccc(F)cc2CO[C@H]2CCNC2)ccc1F [Example D-94, (S)-3-(4,4′-Difluoro-3′-methyl-biphenyl-2-ylmethoxy)-pyrrolidine] | 102 nM | 88.4 nM
Fc1ccc(-c2cccc(OC(F)(F)F)c2)c(CO[C@H]2CCNC2)c1 [Example D-95, (S)-3-(4-Fluoro-3′-trifluoromethoxy-biphenyl-2-ylmethoxy)-pyrrolidine] | 331 nM | 122 nM
Fc1ccc(-c2ccccc2OCc2ccccc2)c(CO[C@H]2CCNC2)c1 [Example D-97, (S)-3-(2′-Benzyloxy-4-fluoro-biphenyl-2-ylmethoxy)-pyrrolidine] | 148 nM | 286 nM
COc1ccc(-c2ccc(F)cc2CO[C@H]2CCNC2)cc1C [Example D-98, (S)-3-(4-Fluoro-4′-methoxy-3′-methyl-biphenyl-2-ylmethoxy)-pyrrolidine] | 187 nM | 292 nM
Oc1ccc(-c2ccc(F)cc2CO[C@H]2CCNC2)cc1 [Example D-99, (S)-4′-Fluoro-2′-(pyrrolidine-3-yloxymethyl)-biphenyl-4-ol] | 43.1 nM | 659 nM
COc1ccc(-c2ccc(F)cc2CO[C@H]2CCNC2)cc1F [Example D-100, (S)-3-(4,3′-Difluoro-4′-methoxy-biphenyl-2-ylmethoxy)-pyrrolidine] | 404 nM | 486 nM

Results, then the molecule that gave them:

Ki [1] | Ki [2] | Compound
962 nM | 3780 nM | Fc1ccc(-c2ccccc2-c2ccccc2)c(CO[C@H]2CCNC2)c1 [Example D-101, (S)-3-(4″-Fluoro-[1,1′,2′,1″]terphenyl-2″-ylmethoxy)-pyrrolidine]
≥ 10000 nM | ≥ 10000 nM | CS(=O)(=O)c1ccc(-c2ccc(F)cc2CO[C@H]2CCNC2)cc1 [Example D-102, (S)-3-(4-Fluoro-4′-methanesulfonyl-biphenyl-2-methoxy)-pyrrolidine]
650 nM | 1090 nM | Oc1ccccc1-c1ccc(F)cc1CO[C@H]1CCNC1 [Example D-103, (S)-4′-Fluoro-2′-(pyrrolidin-3-yloxymethyl)-biphenyl-2-ol]
112 nM | 220 nM | Cc1ccc(-c2ccc(F)cc2CO[C@H]2CCNC2)cc1C [Example D-104, (S)-3-(4-Fluoro-3′,4′-dimethyl-biphenyl-2-ylmethoxy)-pyrrolidine]
1520 nM | 577 nM | COc1cc(-c2ccc(F)cc2CO[C@H]2CCNC2)cc(OC)c1OC [Example D-105]
121 nM | 372 nM | Cc1cc(F)ccc1-c1ccc(F)cc1CO[C@H]1CCNC1 [Example D-106, (S)-3-(4,4′-Difluoro-2′-methyl-biphenyl-2-ylmethoxy)-pyrrolidine]
3830 nM | 386 nM | CC(C)Oc1ccc(-c2ccc(F)cc2CO[C@H]2CCNC2)cc1 [Example D-107, (S)-3-(4-Fluoro-4′-isopropoxy-biphenyl-2-ylmethoxy)-pyrrolidine]
103 nM | 57 nM | Fc1ccc(-c2cccc(Cl)c2)c(CO[C@H]2CCNC2)c1 [Example D-108, (S)-3-(3′-Chloro-4-fluoro-biphenyl-2-ylmethoxy)-pyrrolidine]
≥ 10000 nM | ≥ 10000 nM | CCS(=O)(=O)c1ccc(-c2ccc(F)cc2CO[C@H]2CCNC2)cc1 [Example D-109, (S)-3-(4′-Ethanesulfonyl-4-fluoro-biphenyl-2-ylmethoxy)-pyrrolidine]
1200 nM | 1320 nM | N#Cc1ccc(-c2ccc(F)cc2CO[C@H]2CCNC2)cc1 [Example D-110, (S)-4′-Fluoro-2′-(pyrrolidin-3-yloxymethyl)-biphenyl-4-carbonitrile]
97 nM | 155 nM | Fc1ccc(-c2ccc(Cl)cc2)c(CO[C@H]2CCNC2)c1 [Example D-111, (S)-3-(4′-Chloro-4-fluoro-biphenyl-2-ylmethoxy)-pyrrolidine]
9630 nM | 107 nM | Cc1cc(C)n(-c2cccc(-c3ccc(F)cc3CO[C@H]3CCNC3)c2)n1 [Example D-112, (S)-1-[4′-Fluoro-2′-(pyrrolidin-3-yloxymethyl)-biphenyl-3-yl]-3,5-dimethyl-1H-pyrazole]
1340 nM | 1470 nM | CCc1ccccc1-c1ccc(F)cc1CO[C@H]1CCNC1 [Example D-113, (S)-3-(2′-Ethyl-4-fluoro-biphenyl-2-ylmethoxy)-pyrrolidine]
145 nM | 60 nM | COc1cccc(-c2ccc(F)cc2CO[C@H]2CCNC2)c1 [Example D-114, (S)-3-(4-Fluoro-3′-methoxy-biphenyl-2-ylmethoxy)-pyrrolidine]
674 nM | 606 nM | COc1ccc(-c2ccc(F)cc2CO[C@H]2CCNC2)cc1 [Example D-115, (S)-3-(4-Fluoro-4′-methoxy-biphenyl-2-ylmethoxy)-pyrrolidine]
688 nM | 38.7 nM | Fc1ccc(-c2cccc(-n3cccn3)c2)c(CO[C@H]2CCNC2)c1 [Example D-116, (S)-1-[4′-Fluoro-2′-(pyrrolidin-3-yloxymethyl)-biphenyl-3-yl]-1H-pyrazole]
≥ 10000 nM | 2160 nM | NC(=O)c1cccc(-c2ccc(F)cc2CO[C@H]2CCNC2)c1 [Example D-117, (S)-4′-Fluoro-2′-(pyrrolidin-3-yloxymethyl)-biphenyl-3-carboxylic acid amide]
≥ 10000 nM | 3560 nM | Clc1ncccc1-c1ccccc1CO[C@H]1CCNC1 [Example D-118, (S)-2-Chloro-3-[2-(pyrrolidin-3-yloxymethyl)-phenyl]-pyridine]
963 nM | 2730 nM | CC(C)Oc1ncccc1-c1ccccc1CO[C@H]1CCNC1 [Example D-119, (S)-2-Isopropoxy-3-[2-(pyrrolidin-3-yloxymethyl)-phenyl]-pyridine]
571 nM | 4230 nM | CCOc1ncccc1-c1ccccc1CO[C@H]1CCNC1 [Example D-120, (S)-2-Ethoxy-3-[2-(pyrrolidin-3-yloxymethyl)-phenyl]-pyridine]
≥ 10000 nM | 5630 nM | Nc1ncccc1-c1ccccc1CO[C@H]1CCNC1 [Example D-121, (S)-3-[2-(Pyrrolidin-3-yloxymethyl)-phenyl]-pyridin-2-ylamine]
659 nM | 769 nM | c1ccc(-c2cccc3ncccc23)c(CO[C@H]2CCNC2)c1 [Example D-122, (S)-5-[2-(Pyrrolidin-3-yloxymethyl)-phenyl]-quinoline]
7400 nM | 2730 nM | c1ccc(-c2cnc3[nH]ccc3c2)c(CO[C@H]2CCNC2)c1 [Example D-124, (S)-5-[2-(Pyrrolidin-3-yloxymethyl)-phenyl]-1H-pyrrolo[2,3-b]pyridine]
